Source: patent US7585875B2, “Substituted pyrazolo[1,5-a]pyridine compounds and their methods of use” (Avigen, Inc., priority 2006, dated 2009)
Structures can show the parent of a compound that is named as a salt.

The compounds below were run on mechanical allodynia after chronic constriction injury (CCI) to the sciatic nerve (assay: Mechanical allodynia by response to von Frey fibers, rat chronic constriction injury (CCI) model). Conditions: 10 mg/kg IP, 2 hr post dosing.
Format: in vivo, male Sprague-Dawley rats
Text: Chronic Constriction Injury: Heat and cold allodynia responses as well as mechanical allodynia sensations can be evaluated as described below in rats having a chronic constriction injury (CCI). A unilateral mononeuropathy is produced in rats using the chronic constriction injury model described in Bennett et al., Pain (1988) 33:87-107. CCI is produced in anesthetized rats as follows. The lateral aspect of each rat's hind limb is shaved and scrubbed with Nolvasan. Using aseptic techniques, an incision is made on the lateral aspect of the hind limb at the mid-thigh level. The biceps femoris is bluntly dissected to expose the sciatic nerve. On the right hind limb of each rat, four loosely tied ligatures (for example, Chromic gut 4.0; Ethicon, Johnson and Johnson, Somerville, N.J.) are made around the sciatic nerve approximately 1-2 mm apart. On the left side of each rat, an identical dissection is performed except that the sciatic nerve is not ligated (sham). The muscle is closed with a continuous suture pattern with, e.g., 4-0 Vicryl (Johnson and Johnson, Somerville, N.J.) and the overlying skin is closed with wound clips. The rats are ear-tagged for identification purposes and returned to animal housing.
To induce allodynia, male Sprague-Dawley rats underwent chronic constriction injury (CCI) to the sciatic nerve as described by Bennett and Xie, Pain 1988; 33(1):87-107. The plantar surface of the hind paws was stimulated with von Frey filaments (Stoelting) to induce a withdrawal response by blinded personnel. The bending force of fiber required to induce a 50% withdrawal response was calculated following CCI surgery (pre-dosing baseline). N=5-6 allodynic rats received a single intraperitoneal administration of test compound or vehicle. Two hours post-dosing, 50% paw withdrawal threshold was determined again by blinded testers using von Frey filaments. The change in 50% withdrawal threshold relative to pre-dosing baseline is reported in Table 2 for various substituted pyrazolo[1,5-a]pyridine compounds of the invention.

| Compound | Mechanical Allodynia ΔWT (change from pre-dosing 50% withdrawal threshold) | Observation noted beside the allodynia value |
| --- | --- | --- |
| COCC(N)C(=O)c1c(C(C)C)nn2ccccc12 (centres unmarked) [Compound 1082, 2-amino-1-(2-isopropylpyrazolo[1,5-a]pyridin-3-yl)-3-methoxypropan-1-one] | 0.5 grams | – |
| CC(=O)c1c(C(C)C)nn2ccccc12 [Compound 1080, 1-(2-isopropylpyrazolo[1,5-a]pyridin-3-yl)ethanone] | 1.14 grams | – |
| CC(C)c1nn2ccccc2c1-c1cn[nH]c1 [Compound 1104, 2-isopropyl-3-(1H-pyrazol-4-yl)-pyrazolo[1,5-a]pyridine] | 0.86 grams | – |
| CC(N)C(=O)c1c(N(C)C)nn2ccccc12 (centres unmarked) [Compound 1075, 2-amino-1-(2-(dimethylamino)pyrazolo[1,5-a]pyridin-3-yl)propan-1-one] | 0.67 grams | – |
| CC(N)C(=O)c1c(-c2ccc(F)cc2)nn2ccccc12 (centres unmarked) [Compound 1052, 2-amino-1-(2-(4-fluorophenyl)pyrazolo[1,5-a]pyridin-3-yl)propan-1-one hydrochloride] | 10 mg/kg: 0.39 grams | – |
| COc1nn2ccccc2c1C(=O)C(C)N (centres unmarked) [Compound 1057, 2-amino-1-(2-methoxypyrazolo[1,5-a]pyridin-3-yl)propan-1-one] | 0.06 grams | – |
| CC(C)c1nn2ccccc2c1-c1ccnc(NCCCO)n1 [Compound 1134, 3-[4-(2-Isopropyl-pyrazolo[1,5-a]pyridin-3-yl)-pyrimidin-2-ylamino]-propan-1-ol] | 0 grams | – |
| CC(C)CC(N)C(=O)c1c(C(C)C)nn2ccccc12 (centres unmarked) [Compound 1061, 2-amino-1-(2-isopropylpyrazolo[1,5-a]pyridin-3-yl)-4-methylpentan-1-one] | 0 grams | – |
| CC(C)c1nn2ccccc2c1-c1ccc(N2CCOCC2)cc1 [Compound 1102, 2-Isopropyl-3-(4-morpholin-4-yl-phenyl)-pyrazolo[1,5-a]pyridine] | 0 grams | – |
| CC(C)c1nn2ccccc2c1/C=N/NC(N)=O [Compound 1074, (E)-2-((2-isopropylpyrazolo[1,5-a]pyridin-3-yl)methylene)hydrazinecarboxamide] | 3.64 grams | lethargy |
| CC(C)c1nn2ccccc2c1-c1ccnc(N)n1 [Compound 1139, 4-(2-Isopropyl-pyrazolo[1,5-a]pyridin-3-yl)-pyrimidin-2-ylamine] | 0.21 grams | – |
| CC(C)c1nn2ccccc2c1-c1c[nH]c(=S)[nH]1 [compound 1085, 4-(2-isopropylpyrazolo[1,5-a]pyridin-3-yl)-1H-imidazole-2(3H)-thione] | 1.93 grams | – |
| CC(C)c1nn2ccccc2c1-c1cccnc1 [Compound 1111, 2-Isopropyl-3-pyridin-3-yl-pyrazolo[1,5-a]pyridine] | 0 grams | – |
| CC(=O)SC(C)C(=O)c1c(C(C)C)nn2ccccc12 (centres unmarked) [Compound 1081, S-1-(2-isopropylpyrazolo[1,5-a]pyridin-3-yl)-1-oxopropan-2-yl ethanethioate] | 0.07 grams | – |
| CC(C)c1nn2ccccc2c1-c1cc[nH]n1 [Compound 1141, 2-isopropyl-3-(1H-pyrazol-3-yl)-pyrazolo[1,5-a]pyridine] | 1.04 grams | – |
| CC(C)c1nn2ccccc2c1-c1cccc(N)c1 [Compound 1100, 3-(2-isopropyl-pyrazolo[1,5-a]pyridin-3-yl)-phenylamine] | 0 grams | – |
| C/C(=N/O)C(=O)c1c(C(C)C)nn2ccccc12 [Compound 1083, (Z)-2-(hydroxyimino)-1-(2-isopropylpyrazolo[1,5-a]pyridin-3-yl)propan-1-one] | 0 grams | – |

| Compound | Mechanical Allodynia ΔWT (change from pre-dosing 50% withdrawal threshold) | Observation noted beside the allodynia value |
| --- | --- | --- |
| CC(=O)OC(C)C(=O)c1c(C(C)C)nn2ccccc12 (centres unmarked) [Compound 1067, 1-(2-isopropylpyrazolo[1,5-a]pyridin-3-yl)-1-oxopropan-2-yl acetate] | 0.46 grams | – |
| CC(C)c1nn2ccccc2c1-c1ccnc(NCCCN2CCN(C)CC2)n1 [Compound 1135, [4-(2-Isopropyl-pyrazolo[1,5-a]pyridin-3-yl)-pyrimidin-2-yl]-[3-(4-methyl-piperazin-1-yl)-propyl]-amine] | 0 grams | – |
| COc1nn2ccccc2c1C(=O)C(C)C [Compound 1055, 1-(2-methoxypyrazolo[1,5-a]pyridin-3-yl)-2-methylpropan-1-one] | 10 mg/kg: 2.80 grams | – |
| CCC(N)C(=O)c1c(C(C)C)nn2ccccc12 (centres unmarked) [Compound 1060, 2-amino-1-(2-isopropylpyrazolo[1,5-a]pyridin-3-yl)butan-1-one] | 10 mg/kg: 1.87 grams | – |
| CC(C)c1nn2ccccc2c1C=O [Compound 1073, 2-isopropylpyrazolo[1,5-a]pyridine-3-carbaldehyde] | 0 grams | – |
| CCCCC(N)C(=O)c1c(C(C)C)nn2ccccc12 (centres unmarked) [Compound 1077, 2-amino-1-(2-isopropylpyrazolo[1,5-a]pyridin-3-yl)hexan-1-one] | 0.41 grams | – |
| CC(C)Nc1nccc(-c2c(C(C)C)nn3ccccc23)n1 [compound 1137, isopropyl-[4-(2-isopropylpyrazolo[1,5-a]pyridin-3-yl)-pyrimidin-2-yl]-amine] | 3.26 grams | – |
| CC(C)C(=O)c1c(N(C)C)nn2ccccc12 [Compound 1072, 1-(2-(dimethylamino)pyrazolo[1,5-a]pyridin-3-yl)-2-methylpropan-1-one] | 1.48 grams | lethargy |
| CC(C)c1nn2ccccc2c1-c1cnn(C)c1 [Compound 1112, 2-Isopropyl-3-(1-methyl-1H-pyrazol-4-yl)-pyrazolo[1,5-a]pyridine] | 0 grams | – |
| COC(C)C(=O)c1c(C(C)C)nn2ccccc12 (centres unmarked) [Compound 1069, 1-(2-isopropylpyrazolo[1,5-a]pyridin-3-yl)-2-methoxypropan-1-one] | 0.13 grams | – |
| CC(C)c1nn2ccccc2c1-c1ccc(N)cc1 [Compound 1101, 4-(2-Isopropyl-pyrazolo[1,5-a]pyridin-3-yl)-phenylamine] | 0.02 grams | – |
| CC(C)c1nn2ccccc2c1C(N)C(C)C (centres unmarked) [Compound 1051, 1-(2-isopropylpyrazolo[1,5-a]pyridin-3-yl)-2-methylpropan-1-amine hydrochloride] | 0.29 grams | – |
| CC(C)c1nn2ccccc2c1-c1ccncc1 [compound 1103, 2-Isopropyl-3-pyridin-4-yl-pyrazolo[1,5-a]pyridine] | 1.54 grams | – |
| CCC(=O)c1c(-c2ccc(F)cc2)nn2ccccc12 [Compound 1070, 1-(2-(4-fluorophenyl)pyrazolo[1,5-a]pyridin-3-yl)propan-1-one] | 0 grams | – |
| CC(O)C(=O)c1c(C(C)C)nn2ccccc12 (centres unmarked) [Compound 1068, 2-hydroxy-1-(2-isopropylpyrazolo[1,5-a]pyridin-3-yl)propan-1-one] | 0.7 grams | – |
| CC(NCc1ccccc1)C(=O)c1c(C(C)C)nn2ccccc12 (centres unmarked) [compound 1071, 2-(benzylamino)-1-(2-isopropylpyrazolo[1,5-a]pyridin-3-yl)propan-1-one] | 0.57 grams | – |

Same assay, conditions: 20 mg/kg IP, 2 hr post dosing

| Compound | Mechanical Allodynia ΔWT (change from pre-dosing 50% withdrawal threshold) |
| --- | --- |
| CC(N)C(=O)c1c(-c2ccc(F)cc2)nn2ccccc12 (centres unmarked) [Compound 1052, 2-amino-1-(2-(4-fluorophenyl)pyrazolo[1,5-a]pyridin-3-yl)propan-1-one hydrochloride] | 20 mg/kg: 0.31 grams |
| COc1nn2ccccc2c1C(=O)C(C)C [Compound 1055, 1-(2-methoxypyrazolo[1,5-a]pyridin-3-yl)-2-methylpropan-1-one] | 20 mg/kg: 0 grams |
| CCC(N)C(=O)c1c(C(C)C)nn2ccccc12 (centres unmarked) [Compound 1060, 2-amino-1-(2-isopropylpyrazolo[1,5-a]pyridin-3-yl)butan-1-one] | 20 mg/kg: 0.74 grams |
